Data reported in paper PMC4366261, “Characterization of the Intestinal Absorption of Seven Flavonoids from the Flowers of Trollius chinensis Using the Caco-2 Cell Monolayer Model” (PLoS ONE, 2015).
Values joined by “and” are separate entries in the source; they are usually repeats but may differ in a detail not shown here. Identical values can stand only once.

Tests used:
influenza virus A = test system: influenza virus A; parameters: method as in PMID 17193271; conditions: cited from earlier work
murine ear edema model = conditions: cited from earlier work
Caco-2 cells = assay: MTT assay, survival rate of Caco-2 cells; assay type: cell-based, human; conditions: 4 h
From the text: The human colon adenocarcinoma cell line Caco-2 (No. 3111C0001CCC000100, passage 32) was obtained from the Cell Resource Center, Peking Union Medical College (the headquarters of National Infrastructure of Cell Line Resource, NSTI) on May 3rd, 2013. The cell line was checked free of mycoplasma contamination by PCR and culture, its species origin was confirmed with PCR, and its identity was authenticated with STR profiling (FBI, CODIS). All results of the above tests can be viewed on the website (http://cellresource.cn). The cells were cultured in 25 cm^2 flasks in DMEM medium supplemented with 10% (v/v) FBS, 1% (v/v) NEAA, and 1% (v/v) penicillin-streptomycin, in an atmosphere of 5% CO2 at 37°C and constant moisture. The culture medium was replaced every 2 to 3 days, and the cells were split 1:2 or 1:3 as 80% confluence was obtained.
Caco-2 cells at logarithmic growth phase were seeded into 96-well plates and incubated at 37°C in an atmosphere of 5% CO2 and constant moisture in the incubator. After the cells reached confluence, they were cultured in quadruplicate with 100 μL of HBSS solution (negative control) and compound-containing HBSS solution (seven flavonoids or paclitaxel (positive control) at the concentrations of 25, 50, and 100 μmol/L, respectively) for 4 h. Then, HBSS solution was replaced by 100 μL of MTT solution (0.5 mg/mL), and the supernatant was discarded after 4 h of incubation at 37°C. The cells were shaken with 150 μL of DMSO for 10 min, and the absorbance was read on the microplate reader at 570 nm. The survival rate %=A¯/A0¯×100 , wherein A¯ was the average absorbance value of treatment or positive control group, and A0¯ was the average absorbance value of negative control group.

[1] = Stability of sample solutions at room temperature by HPLC; assay type: physicochemical; conditions: sample solution at room temperature, HPLC at 0, 1, 2, 4, 6, 12 and 24 h
Experimental: The intra-day precision was determined by investigating the analytes in sextuplicates during a single day, and the inter-day precision was determined by conducting the intra-day experiment on two consecutive days. […] Each one sample solution of the seven flavonoids was kept at room temperature, and then their stabilities were determined by injecting them into apparatus at 0, 1, 2, 4, 6, 12, and 24 h.

Caco-2 cell monolayer = assay: Transport experiment across Caco-2 cell monolayer (Papp); assay type: in vitro ADME, human; conditions: for Absorption mechanism: from P ratio, time course and concentration course; for P ratio Papp AP→BL/Papp BL→AP: 90 min
Experimental: (§1) For cells differentiation to form a confluent monolayer, Caco-2 cells were seeded into the inserts of the 12-well Transwell plates at the density of 1.0×10^5 cells/cm^2. The culture medium was replaced on every other day in the first week, and then at daily intervals for the apical (AP) side and 2 days intervals for the basal (BL) side until the transport experiment was performed 21 days after seeding. The AP and BL sides contained 0.5 and 1.5 mL of culture medium, respectively. […] The cell inserts were considered as qualified only if the resistance reached above 600 Ω cm^2.
(§2) On day 21, the transport experiment was initiated by removal of the culture medium from AP and BL sides. The Caco-2 monolayers were rinsed twice with pre-warmed Hanks balanced salt solution (HBSS) and were incubated with the same solution at 37°C for 30 min. The seven individual test compounds and an equimolar mixture of them were pre-dissolved in DMSO, and then diluted to 25, 50, and 100 μmol/L with an appropriate volume of HBSS to allow the final concentration of DMSO to be less than 1%. The test compounds were added to the AP (0.5 mL) or BL side (1.5 mL), while the receiving chamber contained the corresponding volume of HBSS. Incubation was performed at 37°C for 180 min, with shaking at 50 rpm. At 30, 60, 90, 120, 150, and 180 min, each 0.2 mL of the solution from BL or AP side was collected, and replaced with an equal volume of HBSS. The samples were frozen immediately and stored below-20°C before analysis.
(§3) The apparent permeability coefficients (Papp) were determined in this study by HPLC quantification of the compounds in the receiver chamber after transport across the Caco-2 monolayer. The calculation was carried out in accordance with the formula Papp = (dQ/dt)×(1/A)×(1/C0), wherein dQ/dt was the rate of appearance of the test compound in the receiver compartment (μmol/s); C0 was the initial concentration of test compound in the donor compartment (μmol/mL); and A was the surface area of the Caco-2 monolayer (cm^2). The percentage transported (%) was calculated using the formula % transported = QB/(CS×VD)×100, wherein QB was the quantity of compound in the receiver compartment (μmol); CS was the concentration of test compound in the donor compartment (μmol/mL); VD was the liquid volume of the donor compartment (mL). The transport rate (μmol/h/cm^2) was calculated using the formula transport rate = QB/(t×A), wherein QB was the quantity of compound in the receiver compartment (μmol); t was the incubation time (h); A was the surface area of the Caco-2 monolayer (cm^2).

[2] = as above; assay type: in vitro ADME, human; conditions: human, 50 μmol/L, 90 min
Experimental: as §1, §2, §3

P-glycoprotein (P-gp) = target: T1, P-glycoprotein (P-gp) (Homo sapiens, UniProt P08183); assay: Transporter inhibition experiment with verapamil hydrochloride (P-gp) in Caco-2 monolayer; assay type: in vitro ADME; conditions: 50 μmol/L compound, 100 μmol/L verapamil hydrochloride, AP to BL
T1 construct: endogenous in cells; host or cells: Caco-2 cells
Experimental: (§4) On day 21, transport study was initiated by carefully removing the culture medium from both AP and BL sides. The Caco-2 monolayers were rinsed twice with pre-warmed HBSS and were incubated with the same solution at 37°C for 30 min. […] The final concentration of DMSO in these solutions was less than 1%. […] Incubation was performed at 37°C for 180 min, with shaking at 50 rpm. […] The samples were frozen immediately and stored below-20°C before analysis.

[3] = target: T2, multidrug resistance protein 2 (MRP2) (Homo sapiens, UniProt Q92887); assay: Transporter inhibition experiment with probenecid (MRP2) in Caco-2 monolayer; assay type: in vitro ADME; conditions: 50 μmol/L compound, 600 μmol/L probenecid, AP to BL
T2 construct: endogenous in cells; host or cells: Caco-2 cells
Experimental: as §4

[4] = in the equimolar mixture of the seven flavonoids, 50 μmol/L
[5] = Caco-2, in the equimolar mixture of the seven flavonoids

T1 sequence (P08183 whole entry): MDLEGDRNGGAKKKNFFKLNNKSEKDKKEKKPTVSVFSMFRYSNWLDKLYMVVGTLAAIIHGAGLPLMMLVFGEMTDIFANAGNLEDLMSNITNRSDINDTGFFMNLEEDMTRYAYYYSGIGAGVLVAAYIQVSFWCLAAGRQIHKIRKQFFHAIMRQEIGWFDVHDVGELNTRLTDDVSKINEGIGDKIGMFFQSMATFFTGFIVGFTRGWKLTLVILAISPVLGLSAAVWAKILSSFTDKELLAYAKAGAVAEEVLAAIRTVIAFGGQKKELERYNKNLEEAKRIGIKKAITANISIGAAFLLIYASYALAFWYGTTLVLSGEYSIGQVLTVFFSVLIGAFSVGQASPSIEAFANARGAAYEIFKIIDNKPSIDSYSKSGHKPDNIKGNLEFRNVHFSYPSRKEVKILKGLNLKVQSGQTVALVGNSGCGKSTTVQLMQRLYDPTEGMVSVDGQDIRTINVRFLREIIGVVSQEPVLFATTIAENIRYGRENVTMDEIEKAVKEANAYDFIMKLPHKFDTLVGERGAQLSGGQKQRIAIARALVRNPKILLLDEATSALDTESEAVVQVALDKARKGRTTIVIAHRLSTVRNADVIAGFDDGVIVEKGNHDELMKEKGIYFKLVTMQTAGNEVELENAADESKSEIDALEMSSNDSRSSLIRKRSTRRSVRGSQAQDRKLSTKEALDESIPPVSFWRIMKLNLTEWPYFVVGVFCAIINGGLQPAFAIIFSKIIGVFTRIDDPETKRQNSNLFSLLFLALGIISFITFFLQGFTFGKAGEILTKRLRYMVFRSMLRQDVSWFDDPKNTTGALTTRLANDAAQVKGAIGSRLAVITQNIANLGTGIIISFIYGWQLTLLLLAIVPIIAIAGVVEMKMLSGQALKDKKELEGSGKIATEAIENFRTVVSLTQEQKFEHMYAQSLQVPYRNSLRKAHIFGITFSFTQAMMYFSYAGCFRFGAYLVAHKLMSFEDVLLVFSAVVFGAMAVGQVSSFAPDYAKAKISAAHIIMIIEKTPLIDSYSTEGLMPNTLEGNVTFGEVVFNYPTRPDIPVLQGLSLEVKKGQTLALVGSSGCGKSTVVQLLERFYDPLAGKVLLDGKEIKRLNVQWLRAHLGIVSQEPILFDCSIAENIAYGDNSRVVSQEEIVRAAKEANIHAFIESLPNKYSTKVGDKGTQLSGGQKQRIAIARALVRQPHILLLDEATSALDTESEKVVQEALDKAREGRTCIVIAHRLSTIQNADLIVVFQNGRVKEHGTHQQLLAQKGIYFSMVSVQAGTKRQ
T2 sequence (Q92887 whole entry): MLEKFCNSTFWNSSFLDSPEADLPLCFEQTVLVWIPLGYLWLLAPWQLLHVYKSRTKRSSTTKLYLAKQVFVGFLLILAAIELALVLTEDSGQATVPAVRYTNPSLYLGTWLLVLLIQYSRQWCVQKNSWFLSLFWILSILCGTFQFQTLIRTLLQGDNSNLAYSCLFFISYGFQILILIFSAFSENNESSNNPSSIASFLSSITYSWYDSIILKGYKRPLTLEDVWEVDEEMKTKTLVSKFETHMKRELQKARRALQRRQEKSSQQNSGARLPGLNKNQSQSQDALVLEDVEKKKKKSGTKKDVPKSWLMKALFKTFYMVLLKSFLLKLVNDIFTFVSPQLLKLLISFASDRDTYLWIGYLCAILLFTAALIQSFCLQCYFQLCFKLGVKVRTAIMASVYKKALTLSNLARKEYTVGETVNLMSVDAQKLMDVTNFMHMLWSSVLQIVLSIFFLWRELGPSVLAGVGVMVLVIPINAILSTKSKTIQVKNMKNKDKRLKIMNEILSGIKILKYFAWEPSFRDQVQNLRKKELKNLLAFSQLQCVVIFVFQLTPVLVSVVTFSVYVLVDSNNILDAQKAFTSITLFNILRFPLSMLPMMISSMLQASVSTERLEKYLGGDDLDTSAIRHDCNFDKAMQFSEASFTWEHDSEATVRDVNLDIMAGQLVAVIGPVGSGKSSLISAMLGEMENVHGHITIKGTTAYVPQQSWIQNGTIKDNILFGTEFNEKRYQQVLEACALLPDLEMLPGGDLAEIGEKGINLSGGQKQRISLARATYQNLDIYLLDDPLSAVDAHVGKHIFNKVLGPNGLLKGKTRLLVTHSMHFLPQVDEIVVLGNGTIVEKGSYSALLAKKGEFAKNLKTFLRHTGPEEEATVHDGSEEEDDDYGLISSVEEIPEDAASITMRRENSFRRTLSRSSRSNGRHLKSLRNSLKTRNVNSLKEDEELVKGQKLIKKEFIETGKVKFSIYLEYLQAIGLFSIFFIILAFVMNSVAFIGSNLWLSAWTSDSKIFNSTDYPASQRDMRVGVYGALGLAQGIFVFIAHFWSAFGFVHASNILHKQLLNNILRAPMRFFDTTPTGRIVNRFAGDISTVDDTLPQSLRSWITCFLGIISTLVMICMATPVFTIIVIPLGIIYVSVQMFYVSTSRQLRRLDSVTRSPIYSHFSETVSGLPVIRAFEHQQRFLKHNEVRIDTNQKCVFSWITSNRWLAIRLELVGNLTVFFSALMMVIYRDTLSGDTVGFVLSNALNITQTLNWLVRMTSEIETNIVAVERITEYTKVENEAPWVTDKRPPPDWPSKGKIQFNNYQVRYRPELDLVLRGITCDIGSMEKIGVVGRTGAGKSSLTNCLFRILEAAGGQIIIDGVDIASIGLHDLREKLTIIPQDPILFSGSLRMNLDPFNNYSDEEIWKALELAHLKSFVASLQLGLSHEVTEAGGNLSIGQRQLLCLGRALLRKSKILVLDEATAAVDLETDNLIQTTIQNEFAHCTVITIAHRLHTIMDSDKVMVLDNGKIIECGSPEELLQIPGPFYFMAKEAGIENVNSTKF

Row | SMILES | Effect against influenza virus A (influenza virus A) | Inhibitory rate on murine ear edema model (murine ear edema model) [%] | Survival rates (%) (Caco-2 cells; 25 μmol/L) | Survival rates (%) (Caco-2 cells; 50 μmol/L) | Survival rates (%) (Caco-2 cells; 100 μmol/L) | RSD% values for 24-hour stability [1] [%] | Transport percentage BL to AP in the equimolar mixture compared with individual state (Caco-2 cell monolayer; 50 μmol/L) | Absorbability assessment based on bidirectional Papp values (Caco-2 cell monolayer; compared with atenolol and propranolol) | Absorption mechanism (Caco-2 cell monolayer) | P ratio Papp AP→BL/Papp BL→AP (Caco-2 cell monolayer; [4]) | P ratio Papp AP→BL/Papp BL→AP (Caco-2 cell monolayer; individual compound, 50 μmol/L) | Papp A→B at 90 min, 50 μmol/L [2, 5] [×10⁻⁶ cm/s] | Papp B→A at 90 min, 50 μmol/L [2, 5] [×10⁻⁶ cm/s] | Papp A→B at 90 min, 50 μmol/L ([2]; Caco-2, individual compound) [×10⁻⁶ cm/s] | Papp B→A at 90 min, 50 μmol/L ([2]; Caco-2, individual compound) [×10⁻⁶ cm/s] | Substrate of P-gp (P-glycoprotein (P-gp)) | Effect of verapamil hydrochloride on the transport (P-glycoprotein (P-gp); 180 min) | Substrate of MRP2 [3] | Effect of probenecid on the transport ([3]; 180 min)
1 | CCC(C)C(=O)O[C@@H]1[C@@H](O)[C@H](O)[C@@H](CO)O[C@H]1c1c(OC)cc(O)c2c(=O)cc(-c3ccc(O)cc3)oc12 (stereo partly drawn) [2”-O-(2”‘-methylbutanoyl)isoswertisin, (2S,3R,4S,5S,6R)-4,5-dihydroxy-2-(5-hydroxy-2-(4-hydroxyphenyl)-7-methoxy-4-oxo-4H-chromen-8-yl)-6-(hydroxymethyl)tetrahydro-2H-pyran-3-yl 2-methylbutanoate] | had an effect | 35.5 | 108.8±10.3 | 127.6±4.9 | 128.9±12.5 | 3.89 | increased almost twice | moderate absorbable compound | passive diffusion without participation of transporter | 0.25 | ~1 and 0.94 | 3.49 ± 0.47 | 13.7 ± 1.14 | 4.5 ± 0.03 | 4.8 ± 0.53 |  |  |  | 
2 | O=c1cc(-c2ccc(O)c(O)c2)oc2c([C@@H]3O[C@H](CO)[C@@H](O)[C@H](O)[C@H]3O[C@@H]3O[C@H](CO)[C@H](O)[C@H](O)[C@H]3O)c(O)cc(O)c12 [2”-O-β-L-galactopyranosylorientin, 8-((2S,3R,4S,5S,6R)-4,5-dihydroxy-6-(hydroxymethyl)-3-(((2S,3R,4S,5R,6R)-3,4,5-trihydroxy-6-(hydroxymethyl)tetrahydro-2H-pyran-2-yl)oxy)tetrahydro-2H-pyran-2-yl)-2-(3,4-dihydroxyphenyl)-5,7-dihydroxy-4H-chromen-4-one] |  |  | 111.0±9.1 | 104.7±2.7 | 102.7±7.7 | 2.86 |  |  | transporter mediated efflux in addition to passive diffusion | 1.90 | 0.40 | 1.31 ± 0.38 | 0.69 ± 0.26 | 1.84 ± 0.01 | 4.58 ± 0.18 | nonsubstrates of P-gp | had no effect | substrate of MRP2 | significantly promoted
